Biological target: T1, GLP-1 Receptor (Homo sapiens, UniProt P43220)
T1 construct: host or cells: HEK293/GLP1R/CRE-LUC (HEK293/CRE-Luc stably expressing the GLP-1 receptor)
Assay: GLP-1R agonist cAMP stimulation assay (HEK293/GLP1R/CRE-LUC cells, Cisbio cAMP dynamic 2 kit);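 further: compounds tested in half-log serial dilution, cAMP detected with cAMP-d2 and anti-cAMP cryptate antibody reagents after 1 h at room temperature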
Format: cell-based
Conditions: HEK293/CRE-Luc cell line stably expressing the GLP-1 Receptor; 1000 cells/well; 30 min at 37° C.; 0.5 mM IBMX, 0.1% BSA; read-out: GLP1R cAMP Stimulation DR: EC50

T1 sequence (P43220 24-463, species assumed): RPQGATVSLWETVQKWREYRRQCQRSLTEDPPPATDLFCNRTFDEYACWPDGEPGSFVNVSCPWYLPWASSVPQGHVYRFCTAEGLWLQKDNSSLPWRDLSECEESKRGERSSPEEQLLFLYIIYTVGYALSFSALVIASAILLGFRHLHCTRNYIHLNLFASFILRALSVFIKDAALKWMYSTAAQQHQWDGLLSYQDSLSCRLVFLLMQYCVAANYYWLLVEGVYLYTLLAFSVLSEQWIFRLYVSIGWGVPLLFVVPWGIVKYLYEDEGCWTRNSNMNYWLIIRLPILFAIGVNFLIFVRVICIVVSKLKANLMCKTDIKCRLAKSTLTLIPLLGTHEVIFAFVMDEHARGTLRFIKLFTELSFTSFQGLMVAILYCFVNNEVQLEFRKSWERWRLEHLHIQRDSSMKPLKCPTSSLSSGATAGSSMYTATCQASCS

In order of falling EC50:
1. Cn1c(C2CCC(C(=O)O)C2)cnc1CN1CCC(c2cccc3c2OC(C)(c2ccc(Cl)cc2F)O3)CC1 (stereo not drawn) [Compound 247, 3-(2-((4-(2-(4-chloro-2-fluorophenyl)-2-methylbenzo[d][1,3]dioxol-4-yl)piperidin-1-yl)methyl)-1-methyl-1H-imidazol-5-yl)cyclopentane-1-carboxylic acid]  310 nM
2. O=C(O)/C=C/c1ccc(CN2CCC(c3cccc(OCc4ccc(Cl)cc4F)n3)CC2)nc1 [Compound 123, (E)-3-(6-((4-(6-((4-chloro-2-fluorobenzyl)oxy)pyridin-2-yl)piperidin-1-yl)methyl)pyridin-3-yl)acrylic acid]  109 nM
3. COCCn1c(C2CC2C(=O)O)cnc1CN1CCC(c2cccc(OCc3ccc(Cl)cc3F)n2)CC1 (stereo not drawn) [Compound 113]  34.9 nM
4. C/C(=C\c1cnc(CN2CCC(c3cccc4c3O[C@](C)(c3ccc(Cl)cc3F)O4)CC2)n1C[C@@H]1CCO1)C(=O)O (single isomer, unassigned) [Compound 131b]  8.7 nM
5. Cc1cc(-c2nnc(C(F)(F)F)[nH]2)cnc1CN1CCC(c2cccc3c2OC(C)(c2ccc(Cl)cc2F)O3)CC1 (stereo not drawn) [Compound 255, 2-({4-[2-(4-chloro-2-fluorophenyl)-2-methyl-2H-1,3-benzodioxol-4-yl]piperidin-1-yl}methyl)-3-methyl-5-[5-(trifluoromethyl)-4H-1,2,4-triazol-3-yl]pyridine]  8.3 nM
6. C/C(=C\c1cnc(CN2CCC(c3cccc4c3O[C@@H](c3ccc(Cl)cc3)O4)CC2)n1C[C@@H]1CCO1)C(=O)O [Compound 133a, (E)-3-(2-((4-((S)-2-(4-chlorophenyl)benzo[d][1,3]dioxol-4-yl)piperidin-1-yl)methyl)-1-(((S)-oxetan-2-yl)methyl)-1H-imidazol-5-yl)-2-methylacrylic acid]  5.4 nM
7. COCCc1cc(-c2nnc(C(F)(F)F)[nH]2)cnc1CN1CCC(c2cccc3c2OC(C)(c2ccc(Cl)cc2)O3)CC1 (stereo not drawn) [Compound 261, 2-({4-[2-(4-chlorophenyl)-2-methyl-2H-1,3-benzodioxol-4-yl]piperidin-1-yl}methyl)-3-(2-methoxyethyl)-5-[5-(trifluoromethyl)-4H-1,2,4-triazol-3-yl]pyridine]  5.3 nM
8. O=C(O)CCc1cnc(CN2CCC(c3cccc(OCc4ccc(Cl)cc4F)n3)CC2)n1CC1CCC1 [Compound 107]  4.4 nM
9. C/C(=C\c1cnc(CN2CCC(c3cccc4c3OC(c3ccc(Cl)cc3F)O4)CC2)n1C[C@@H]1CCO1)C(=O)O (stereo partly drawn) [Compound 132a, (E)-3-(2-((4-(2-(4-chloro-2-fluorophenyl)benzo[d][1,3]dioxol-4-yl)piperidin-1-yl)methyl)-1-((S)-oxetan-2-ylmethyl)-1H-imidazol-5-yl)-2-methylacrylic acid]  1.6 nM
10. Cc1ncoc1Cn1c(/C=C/C(=O)O)cnc1CN1CCC(c2cccc3c2OC[C@@H](c2ccc(Cl)cc2)O3)CC1 [Compound 199a, (R,E)-3-(2-((4-(2-(4-chlorophenyl)-2,3-dihydrobenzo [b][1,4]dioxin-5-yl)piperidin-1-yl)methyl)-1-((4-methyloxazol-5-yl)methyl)-1H-imidazol-5-yl)acrylic acid]  1.6 nM
11. C/C(=C\c1nnc(CN2CCC(c3cccc(OCc4ccc(Cl)cc4F)n3)CC2)n1C[C@@H]1CCO1)C(=O)O [Compound 226a, (S,E)-3-(5-((4-(6-((4-chloro-2-fluorobenzyl)oxy)pyridin-2-yl)piperidin-1-yl)methyl)-4-(oxetan-2-ylmethyl)-4H-1,2,4-triazol-3-yl)-2-methylacrylic acid]  1.2 nM
12. O=C(O)/C=C/c1nnc(CN2CCC(c3cccc(OCc4ccc(Cl)cc4F)n3)CC2)n1CC1CCCO1 (stereo not drawn) [Compound 231, (E)-3-(5-((4-(6-((4-chloro-2-fluorobenzyl)oxy)pyridin-2-yl)piperidin-1-yl)methyl)-4-((tetrahydrofuran-2-yl)methyl)-4H-1,2,4-triazol-3-yl)acrylic acid]  0.88 nM
13. CC1(c2ccc(Cl)cc2F)Oc2cccc(C3CCN(Cc4ncc(CCC(=O)O)n4Cc4ccccc4)CC3)c2O1 (stereo not drawn) [Compound 242, 3-(1-benzyl-2-((4-(2-(4-chloro-2-fluorophenyl)-2-methylbenzo[d][1,3]dioxol-4-yl)piperidin-1-yl)methyl)-1H-imidazol-5-yl)propanoic acid]  0.63 nM
14. O=C(O)/C=C/c1cnc(CN2CCC(c3cccc(OCc4ccc(Cl)cc4F)n3)CC2)n1CC1CCC1 [Compound 211, (E)-3-(2-((4-(6-((4-chloro-2-fluorobenzyl)oxy)pyridin-2-yl)piperidin-1-yl)methyl)-1-(cyclobutylmethyl)-1H-imidazol-5-yl)acrylic acid]  0.54 nM
15. CC1(c2ccc(Cl)cc2F)Oc2cccc(C3CCN(Cc4ncc(/C=C/C(=O)O)n4CC4CC4)CC3)c2O1 (stereo not drawn) [Compound 162, (E)-3-(2-((4-(2-(4-chloro-2-fluorophenyl)-2-methylbenzo[d][1,3]dioxol-4-yl)piperidin-1-yl)methyl)-1-(cyclopropylmethyl)-1H-imidazol-5-yl)acrylic acid]  0.14 nM
16. C/C(=C\c1cnc(CN2CCC(c3cccc4c3O[C@@](C)(c3ccc(Cl)cc3F)O4)CC2)n1C[C@@H]1CCO1)C(=O)O (single isomer, unassigned) [Compound 131a]  0.099 nM
17. CC1(c2ccc(Cl)cc2F)Oc2cccc(C3CCN(Cc4ncc(/C=C/C(=O)O)n4CCOC4CC4)CC3)c2O1 (stereo not drawn) [Compound 201, (E)-3-(2-((4-(2-(4-chloro-2-fluorophenyl)-2-methylbenzo[d][1,3]dioxol-4-yl)piperidin-1-yl)methyl)-1-(2-cyclopropoxyethyl)-1H-imidazol-5-yl)acrylic acid]  0.034 nM
18. CCn1cncc1Cn1c(/C=C/C(=O)O)nnc1CN1CCC(c2cccc3c2OC[C@@H](c2ccc(Cl)cc2)O3)CC1 [Compound 234a, (R,E)-3-(5-((4-(2-(4-chlorophenyl)-2,3-dihydrobenzo[b][1,4]dioxin-5-yl)piperidin-1-yl)methyl)-4-((1-ethyl-1H-imidazol-5-yl)methyl)-4H-1,2,4-triazol-3-yl)acrylic acid]  0.026 nM
19. Cc1ncoc1Cn1c(/C=C/C(=O)O)cnc1CN1CCC(c2cccc3c2OC(C)(c2ccc(Cl)cc2F)O3)CC1 (stereo not drawn) [Compound 190, (E)-3-(2-((4-(2-(4-chloro-2-fluorophenyl)-2-methylbenzo[d][1,3]dioxol-4-yl)piperidin-1-yl)methyl)-1-((4-methyloxazol-5-yl)methyl)-1H-imidazol-5-yl)acrylic acid]  0.012 nM
20. CC1(c2ccc(Cl)cc2F)Oc2cccc(C3CCN(Cc4ncc(/C=C/C(=O)O)n4C[C@H]4CCOC4)CC3)c2O1 (stereo partly drawn) [Compound 154, (E)-3-(2-((4-(2-(4-chloro-2-fluorophenyl)-2-methylbenzo[d][1,3]dioxol-4-yl)piperidin-1-yl)methyl)-1-(((R)-tetrahydrofuran-3-yl)methyl)-1H-imidazol-5-yl)acrylic acid]  0.012 nM
21. C[C@]1(c2ccc(Cl)cc2F)Oc2cccc(C3CCN(Cc4ncc(-c5nnc(C(F)(F)F)[nH]5)cc4CC4(C#N)CC4)CC3)c2O1 [Compound 258, 1-{[2-({4-[(2S)-2-(4-chloro-2-fluorophenyl)-2-methyl-2H-1,3-benzodioxol-4-yl]piperidin-1-yl}methyl)-5-[5-(trifluoromethyl)-4H-1,2,4-triazol-3-yl]pyridin-3-yl]methyl}cyclopropane-1-carbonitrile]  0.0061 nM

Source: patent publication US11897851B2, “Heterocyclic GLP-1 agonists” (Gasherbrum Bio, Inc., priority 2021, dated 2024)
